Reference: ChEMBL document CHEMBL1201862, “PubChem BioAssay data set” (2004)
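Values below derive from 48-hour exposures of cells grown in 96-well plates, with endpoints linearly interpolated between the two concentrations bracketing the appropriate inhibition level. The concentration for 50% growth inhibition is given as GI50.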 The source made the active and inactive calls. Cut-off read from the data, not from the text of the source: active = GI50 up to about 1.1 µM and inactive = higher.

Legend:
Experiment in all cases: NCI anticancer screen, dose series, 48 h
CCRF-CEM = test system: CCRF-CEM
SF-539 = test system: SF-539
MDA-MB-435 = test system: MDA-MB-435
TK-10 = test system: TK-10
NCI-H522 = test system: NCI-H522
IGROV-1 = test system: IGROV-1
786-0 = test system: 786-0
M14 = test system: M14
T47D = test system: T47D
SW-620 = test system: SW-620
HOP-92 = test system: HOP-92
SNB-19 = test system: SNB-19
HCT-116 = test system: HCT-116
RXF 393 = test system: RXF 393
SN12C = test system: SN12C
UACC-257 = test system: UACC-257
SK-MEL-2 = test system: SK-MEL-2
LOX IMVI = test system: LOX IMVI
COLO 205 = test system: COLO 205
A498 = test system: A498

SMILES	GI50 (CCRF-CEM)	GI50 (SF-539)	GI50 (MDA-MB-435)	GI50 (TK-10)	GI50 (NCI-H522)	GI50 (IGROV-1)	GI50 (786-0)	GI50 (M14)	GI50 (T47D)	GI50 (SW-620)	GI50 (HOP-92)	GI50 (SNB-19)	GI50 (HCT-116)	GI50 (RXF 393)	GI50 (SN12C)	GI50 (UACC-257)	GI50 (SK-MEL-2)	GI50 (LOX IMVI)	GI50 (COLO 205)	GI50 (A498)
N=C1/C(=C/c2ccco2)C(=O)N=C2SC=NN12	> 100 µM (inactive)	> 100 µM (inactive)	> 100 µM (inactive)	> 100 µM (inactive)	> 100 µM (inactive)	> 100 µM (inactive)	> 100 µM (inactive)	> 100 µM (inactive)	> 100 µM (inactive)	> 100 µM (inactive)	> 100 µM (inactive)	> 100 µM (inactive)	> 100 µM (inactive)	> 100 µM (inactive)	> 100 µM (inactive)	> 100 µM (inactive)	> 100 µM (inactive)	> 100 µM (inactive)	> 100 µM (inactive)	
N#Cc1c(-c2ccc([N+](=O)[O-])cc2)cc(-c2ccc(Nc3ccnc4cc(C(F)(F)F)ccc34)cc2)[nH]c1=O	> 100 µM (inactive)	> 100 µM (inactive)	> 100 µM (inactive)	52.2 µM (inactive)	> 100 µM (inactive)	> 100 µM (inactive)	51.9 µM (inactive)	80.9 µM (inactive)	> 100 µM (inactive)	> 100 µM (inactive)		24.4 µM (inactive)	22.2 µM (inactive)	> 100 µM (inactive)	> 100 µM (inactive)	> 100 µM (inactive)	> 100 µM (inactive)	> 100 µM (inactive)	12.2 µM (inactive)	> 100 µM (inactive)
CC(C)(Oc1ccc(Cl)cc1)C(=O)N(C(=O)N1CCCCC1)c1ccccc1	16.7 µM (inactive)	8.34 µM (inactive)	16 µM (inactive)			5.09 µM (inactive)	13.4 µM (inactive)	17.5 µM (inactive)	0.891 µM (active)	12.9 µM (inactive)		16.8 µM (inactive)	5.32 µM (inactive)	18 µM (inactive)	17 µM (inactive)		13.1 µM (inactive)	11.4 µM (inactive)	17.4 µM (inactive)	17 µM (inactive)
COc1ccc2c(c1)OCC1Cc3cccc(OC)c3OC21 (stereo not given)	40 µM (inactive)	> 100 µM (inactive)	28.7 µM (inactive)	40.3 µM (inactive)	55.6 µM (inactive)	66.7 µM (inactive)	> 100 µM (inactive)	96.2 µM (inactive)	30.1 µM (inactive)	60.3 µM (inactive)	> 100 µM (inactive)		45.1 µM (inactive)		> 100 µM (inactive)	36.1 µM (inactive)	51.3 µM (inactive)	45.5 µM (inactive)	41.6 µM (inactive)	> 100 µM (inactive)
CC(=O)OCC1OC(SC2=N/C(=C\c3cc4c(=O)c5ccccc5sc4s3)C(=O)N2c2ccccc2)C(OC(C)=O)C(OC(C)=O)C1OC(C)=O (stereo not given)			> 100 µM (inactive)	> 100 µM (inactive)	> 100 µM (inactive)	> 100 µM (inactive)	> 100 µM (inactive)		> 100 µM (inactive)	67.8 µM (inactive)		40.4 µM (inactive)	37.6 µM (inactive)	81.5 µM (inactive)	> 100 µM (inactive)	> 100 µM (inactive)	32 µM (inactive)	55.1 µM (inactive)	> 100 µM (inactive)	> 100 µM (inactive)
CS(=O)(=O)Nc1ccc(N2Cc3c[nH]c4ccc5nccc2c5c34)cc1	7.33 µM (inactive)		15.5 µM (inactive)	23 µM (inactive)	10.3 µM (inactive)	22.2 µM (inactive)	14.3 µM (inactive)	15.5 µM (inactive)	3.5 µM (inactive)	15 µM (inactive)	12.9 µM (inactive)	13.1 µM (inactive)	9.14 µM (inactive)		14 µM (inactive)	14.5 µM (inactive)	16.4 µM (inactive)	12.2 µM (inactive)	11.9 µM (inactive)	23.2 µM (inactive)
CC(C)(/N=N/C(C)(C)C1=NCCN1)C1=NCCN1	> 100 µM (inactive)	> 67.1 µM (inactive)	> 100 µM (inactive)	> 56 µM (inactive)		> 100 µM (inactive)	> 71.4 µM (inactive)	> 85.9 µM (inactive)	76.6 µM (inactive)	> 100 µM (inactive)		> 100 µM (inactive)	> 100 µM (inactive)	> 100 µM (inactive)	> 78.5 µM (inactive)	> 100 µM (inactive)	> 100 µM (inactive)	> 66.1 µM (inactive)	> 100 µM (inactive)	> 100 µM (inactive)
Cc1cc(C)c(OC(=O)Nc2cccc3ccccc23)c(-c2ccccc2)c1	22.2 µM (inactive)	57 µM (inactive)	30.1 µM (inactive)	33.4 µM (inactive)		36.5 µM (inactive)	50.5 µM (inactive)	29.1 µM (inactive)	48.6 µM (inactive)	57.8 µM (inactive)	26.1 µM (inactive)		34.9 µM (inactive)		38.2 µM (inactive)		> 10 µM (inactive)	24.8 µM (inactive)	50.1 µM (inactive)	
CO/N=C(\C(=O)Nn1cn[n+](CC(=O)[O-])c1)c1csc(N)n1	> 10 µM (inactive)			> 10 µM (inactive)		> 10 µM (inactive)	> 10 µM (inactive)	> 10 µM (inactive)	> 10 µM (inactive)	> 10 µM (inactive)	> 10 µM (inactive)		> 10 µM (inactive)		> 10 µM (inactive)	> 10 µM (inactive)		> 10 µM (inactive)	> 10 µM (inactive)	
CCCCN(CCCC)CCC(O)c1cc(-c2ccc(C(F)(F)F)cc2)nc(-c2ccc(C(F)(F)F)cc2)c1 (stereo not given)	> 100 µM (inactive)	> 100 µM (inactive)	> 100 µM (inactive)	> 100 µM (inactive)	> 100 µM (inactive)	> 100 µM (inactive)	> 100 µM (inactive)	> 100 µM (inactive)	> 100 µM (inactive)	> 100 µM (inactive)	> 100 µM (inactive)	> 100 µM (inactive)	> 100 µM (inactive)		> 100 µM (inactive)	> 100 µM (inactive)	> 100 µM (inactive)	> 100 µM (inactive)	> 100 µM (inactive)	> 100 µM (inactive)
O=c1c(SSc2coc3cc(F)ccc3c2=O)coc2cc(F)ccc12	3.58 µM (inactive)	28.7 µM (inactive)	11.1 µM (inactive)	35.2 µM (inactive)	20.7 µM (inactive)	2.95 µM (inactive)	10 µM (inactive)		20.7 µM (inactive)	17.7 µM (inactive)		43.5 µM (inactive)	5.14 µM (inactive)	32.2 µM (inactive)	15.2 µM (inactive)	21.8 µM (inactive)		2.65 µM (inactive)	17.4 µM (inactive)	
Cc1cccc(Cn2c3c(c4cc(O)ccc42)C(=O)c2ccccc2C3=O)c1	28.1 µM (inactive)	5.7 µM (inactive)	> 80.9 µM (inactive)	15.5 µM (inactive)		5.13 µM (inactive)	3.86 µM (inactive)	> 100 µM (inactive)	> 100 µM (inactive)	31 µM (inactive)		28 µM (inactive)	3.05 µM (inactive)	5.6 µM (inactive)	> 61 µM (inactive)	> 100 µM (inactive)	> 91.2 µM (inactive)	12.6 µM (inactive)	> 78.2 µM (inactive)	> 90.8 µM (inactive)
CO/C(=N\N=C\c1ccc(Cl)cc1Cl)c1ccncc1	> 10 µM (inactive)		3.66 µM (inactive)	> 10 µM (inactive)	> 10 µM (inactive)		> 10 µM (inactive)	> 10 µM (inactive)	7.69 µM (inactive)	> 10 µM (inactive)	> 10 µM (inactive)	> 10 µM (inactive)	> 10 µM (inactive)	> 10 µM (inactive)	> 10 µM (inactive)	> 10 µM (inactive)	> 10 µM (inactive)	> 10 µM (inactive)	> 10 µM (inactive)	
Cc1cc2ncc3c(=O)n(NS(=O)(=O)c4ccc(N)cc4)ccc3n2n1	> 100 µM (inactive)	> 100 µM (inactive)	> 100 µM (inactive)	> 100 µM (inactive)	> 100 µM (inactive)	> 100 µM (inactive)	> 100 µM (inactive)	> 100 µM (inactive)	> 100 µM (inactive)	> 100 µM (inactive)	54.2 µM (inactive)	> 100 µM (inactive)	> 100 µM (inactive)		> 100 µM (inactive)	> 100 µM (inactive)	> 100 µM (inactive)	> 100 µM (inactive)	> 100 µM (inactive)	70.8 µM (inactive)
CCc1ccccc1NC(=O)C(C#N)C1=C(Cl)C(=O)c2ccccc2C1=O (stereo not given)	3.41 µM (inactive)	18.9 µM (inactive)	25.6 µM (inactive)	18.7 µM (inactive)	13.5 µM (inactive)	12.6 µM (inactive)	15.5 µM (inactive)	6.71 µM (inactive)	19.5 µM (inactive)	18.4 µM (inactive)	29.4 µM (inactive)	25.4 µM (inactive)	13 µM (inactive)	20.5 µM (inactive)	13.1 µM (inactive)	16.4 µM (inactive)	17.3 µM (inactive)	13.2 µM (inactive)	15.7 µM (inactive)	
